Patent US20080039495A1, “Diamine Beta2 Adrenergic Receptor Agonists” (priority 2004, published 2008)

Assays:
[1] = target: T1, human β2 adrenergic receptor (Homo sapiens, UniProt P07550); assay: Radioligand binding assay (Test A); settings: for Ki: [3H]dihydroalprenolol displacement, HEK-293 membranes, results expressed as pKi; for Selectivity β2/β1 (binding): ratio Ki(β1)/Ki(β2)
T1 construct: expressed in transfected cells; membrane preparation
Experimental: HEK-293 derived cell lines stably expressing cloned human β1 or β2 adrenergic receptors, respectively, were grown to near confluency in DMEM with 10% dialyzed FBS in the presence of 500 μg/mL Geneticin. The cell monolayer was lifted with Versene 1:5,000 (0.2 g/L EDTA in PBS) using a cell scraper. Cells were pelleted by centrifugation at 1,000 rpm, and cell pellets were either stored frozen at −80° C. or membranes were prepared immediately. For preparation, cell pellets were resuspended in lysis buffer (10 mM Tris/HCL pH 7.4 @ 4° C., one tablet of “Complete Protease Inhibitor Cocktail Tablets with 2 mM EDTA” per 50 mL buffer (Roche cat.# 1697498, Roche Molecular Biochemicals, Indianapolis, Ind.)) and homogenized using a tight-fitting Dounce glass homogenizer (20 strokes) on ice. The homogenate was centrifuged at 20,000×g, the pellet was washed once with lysis buffer by resuspension and centrifugation as above. The final pellet was resuspended in membrane buffer (75 mM Tris/HCl pH 7.4, […], 1 mM EDTA @ 25° C.). Protein concentration of the membrane suspension was determined by the method of Bradford (Bradford M M., Analytical Biochemistry, 1976, 72, 248-54). Membranes were stored frozen in aliquots at −80° C.
Binding assays were performed in 96-well microtiter plates in a total assay volume of 100 μL with 5 μg membrane protein for membranes containing the human β2 adrenergic receptor, or 2.5 μg membrane protein for membranes containing the human β1 adrenergic receptor in assay buffer (75 mM Tris/HCl pH 7.4 @ 25° C., 12.5 mM MgCl2, 1 mM EDTA, 0.2% BSA). […] Non-specific binding was determined in the presence of 10 μM unlabeled alprenolol. […] Filter plates were washed three times with filtration buffer (75 mM Tris/HCl pH 7.4 @ 4° C., 12.5 mM MgCl2, 1 mM EDTA) to remove unbound radioactivity. Plates were dried, 50 μL Microscint-20 liquid scintillation fluid (Packard BioScience Co., Meriden, Conn.) was added and plates were counted in a Packard Topcount liquid scintillation counter (Packard BioScience Co., Meriden, Conn.). Binding data were analyzed by nonlinear regression analysis with the GraphPad Prism Software package (GraphPad Software, Inc., San Diego, Calif.) using the 3-parameter model for one-site competition. The curve minimum was fixed to the value for nonspecific binding, as determined in the presence of 10 μM alprenolol. Ki values for compounds were calculated from observed IC50 values and the Kd value of the radioligand using the Cheng-Prusoff equation (Cheng Y, and Prusoff W H., Biochemical Pharmacology, 1973, 22, 23, 3099-108). The receptor subtype selectivity was calculated as the ratio of Ki(β1)/Ki(β2).
Binding results are expressed as the negative decadic logarithm of the Ki values, pKi. […]

human β2-adrenoceptor = target: T2, human β2-adrenoceptor (Homo sapiens, UniProt P07550); assay: Whole-cell cAMP Flashplate assay, recombinant cell line (Test B); format: cell-based; settings: for EC50: HEK-293 cells expressing cloned human β2-adrenoceptor, cAMP; for Selectivity β2/β1 (functional): ratio EC50(β1)/EC50(β2); for Selectivity β2/β3 (functional): ratio EC50(β3)/EC50(β2)
T2 construct: expressed in transfected cells
T2 sequence (P07550 whole entry): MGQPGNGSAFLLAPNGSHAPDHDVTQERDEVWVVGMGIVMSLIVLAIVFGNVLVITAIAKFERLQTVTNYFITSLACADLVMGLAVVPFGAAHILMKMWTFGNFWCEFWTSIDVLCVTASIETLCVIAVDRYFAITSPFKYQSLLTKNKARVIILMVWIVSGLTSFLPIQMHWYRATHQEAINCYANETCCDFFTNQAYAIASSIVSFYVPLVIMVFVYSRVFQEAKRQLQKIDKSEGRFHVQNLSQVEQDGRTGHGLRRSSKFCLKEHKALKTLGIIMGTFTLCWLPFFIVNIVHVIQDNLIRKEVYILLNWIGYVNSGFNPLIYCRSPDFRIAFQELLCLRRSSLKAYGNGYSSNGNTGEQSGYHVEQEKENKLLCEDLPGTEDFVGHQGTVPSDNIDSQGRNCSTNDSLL
Experimental: A HEK-293 cell line stably expressing cloned human β1 adrenergic receptor (clone H34.1) was grown to about 70%-90% confluency in medium consisting of DMEM supplemented with 10% FBS and 500 μg/mL Geneticin. A HEK-293 cell line stably expressing cloned human β2-adrenoceptor (clone H24.14) was grown in the same medium to full confluency. A CHO-K1 cell line stably expressing cloned human β3-adrenoceptor was grown to about 70%-90% confluency in Ham's F-12 medium supplemented with 10% FBS and with 800 μg/mL Geneticin added to every fifth passage. The day before the assay, cultures were switched to the same growth-media without antibiotics.
cAMP assays were performed in a radioimmunoassay format using the Flashplate Adenylyl Cyclase Activation Assay System with ^125I-cAMP (NEN SMP004, PerkinElmer Life Sciences Inc., Boston, Mass.), according to the manufacturers instructions.
On the day of the assay, cells were rinsed once with PBS, lifted with Versene 1:5,000 (0.2 g/L EDTA in PBS) and counted. Cells were pelleted by centrifugation at 1,000 rpm and resuspended in stimulation buffer prewarmed to 37° C. For cells expressing the β1-adrenoceptor, 10 nM ICI 118,551 were added to the stimulation buffer, and cells were incubated for 10 min at 37° C. Cells were used at final concentrations of 30,000, 40,000 and 70,000 cells/well for the β1-adrenoceptor-, the β2-adrenoceptor- and the β3-adrenoceptor expressing cells, respectively. Compounds were dissolved to a concentration of 10 mM in DMSO, then diluted to 1 mM in 50 mM Gly-HCl pH 3.0, and from there serially diluted into assay buffer (75 mM Tris/HCl pH 7.4 @ 25° C., 12.5 mM MgCl2, 1 mM EDTA, 0.2% BSA). Compounds were tested in the assay at 11 different concentrations, ranging from 10 μM to […]. Reactions were incubated for 10 min at 37° C. and stopped by addition of 100 μL ice-cold detection buffer. Plates were sealed, incubated over night at 4° C. and counted the next morning in a topcount scintillation counter (Packard BioScience Co., Meriden, Conn.). The amount of cAMP produced per mL of reaction was calculated based on the counts observed for the samples and cAMP standards, as described in the manufacturer's user manual. Data were analyzed by nonlinear regression analysis with the GraphPad Prism Software package (GraphPad Software, Inc., San Diego, Calif.) using the 3-parameter model for sigmoidal dose-response (Hill slope=1). Agonist potencies were expressed as pEC50 values. Functional β2/β1 selectivity was defined as the ratio EC50(β1)/EC50(β2), and correspondingly functional β2/β3 selectivity was defined as the ratio EC50(β3)/EC50(β2).

[2] = test system: acetylcholine-induced bronchospasm; assay: Bronchoprotection against acetylcholine-induced bronchospasm in a guinea pig model (Test D); format: in vivo; settings: inhalation
Experimental: Groups of 6 male guinea pigs (Duncan-Hartley (HsdPoc:DH) Harlan, Madison, Wis.) weighing between 250 and 350 g were individually identified by cage cards. Throughout the study animals were allowed access to food and water ad libitum.
Test compounds were administered via inhalation over 10 minutes in a whole-body exposure dosing chamber (R&S Molds, San Carlos, Calif.). The dosing chambers were arranged so that an aerosol was simultaneously delivered to 6 individual chambers from a central manifold. Following a 60 minute acclimation period and a 10 minute exposure to nebulized water for injection (WFI), guinea pigs were exposed to an aerosol of test compound or vehicle (WFI). These aerosols were generated from aqueous solutions using an LC Star Nebulizer Set (Model 22F51, PARI Respiratory Equipment, Inc. Midlothian, Va.) driven by a mixture of gases (CO2=5%, O2=21% and N2=74%) at a pressure of 22 psi. The gas flow through the nebulizer at this operating pressure was approximately 3 L/minute. The generated aerosols were driven into the chambers by positive pressure. No dilution air was used during the delivery of aerosolized solutions. During the 10 minute nebulization, approximately 1.8 mL of solution was nebulized. This was measured gravimetrically by comparing pre- and post-nebulization weights of the filled nebulizer.
The bronchoprotective effects of compounds administered via inhalation were evaluated using whole body plethysmography at 1.5, 24, 48 and 72 hours post-dose. Forty-five minutes prior to the start of the pulmonary evaluation, each guinea pig was anesthetized with an intramuscular injection of ketamine (43.75 mg/kg), xylazine (3.50 mg/kg) and acepromazine (1.05 mg/kg). After the surgical site was shaved and cleaned with 70% alcohol, a 2-5 cm midline incision of the ventral aspect of the neck was made. Then, the jugular vein was isolated and cannulated with a saline-filled polyethylene catheter (PE-50, Becton Dickinson, Sparks, Md.) to allow for intravenous infusions of a 0.1 mg/mL solution of acetylcholine (Ach), (Sigma-Aldrich, St. Louis, Mo.) in saline. The trachea was then dissected free and cannulated with a 14G teflon tube (#NE-014, Small Parts, Miami Lakes, Fla.). If required, anesthesia was maintained by additional intramuscular injections of the aforementioned anesthetic cocktail. The depth of anesthesia was monitored and adjusted if the animal responded to pinching of its paw or if the respiration rate was greater than 100 breaths/minute.
Once the cannulations were complete, the animal was placed into a plethysmograph (#PLY3114, Buxco Electronics, Inc., Sharon, Conn.) and an esophageal pressure cannula was inserted to measure pulmonary driving pressure (pressure). The teflon tracheal tube was attached to the opening of the plethysmograph to allow the guinea pig to breathe room air from outside the chamber. The chamber was then sealed.
Once it was determined that baseline values were within the range 0.3-0.9 mL/cm H2O for compliance and within the range 0.1-0.199 cm H2O/mL per second for resistance, the pulmonary evaluation was initiated. A Buxco pulmonary measurement computer program enabled the collection and derivation of pulmonary values. Starting this program initiated the experimental protocol and data collection. The changes in volume over time that occurred within the plethysmograph with each breath were measured via a Buxco pressure transducer. By […] this signal over time, a measurement of flow was calculated for each breath. This signal, together with the pulmonary driving pressure changes, which were collected using a Sensym pressure transducer (#TRD4100), was connected via a Buxco (MAX 2270) preamplifier to a data collection interface (#'s SFT3400 and SFT3813). All other pulmonary parameters were derived from these two inputs.
Baseline values were collected for 5 minutes, after which time the guinea pigs were challenged with Ach. […]

[3] = target: T1, human β2 adrenergic receptor; assay: Whole-cell cAMP Flashplate assay, lung epithelial cell line BEAS-2B endogenously expressing receptor (Test C); format: cell-based
Experimental: For the determination of agonist potencies and efficacies (intrinsic activities) in a cell line expressing endogenous levels of β2 adrenergic receptor, a human lung epithelial cell line (BEAS-2B) was used (ATCC CRL-9609, American Type Culture Collection, Manassas, Va.) (January B, et al., British Journal of Pharmacology, 1998, 123, 4, 701-11). Cells were grown to 75-90% confluency in complete, serum-free medium (LHC-9 MEDIUM containing Epinephrine and Retinoic Acid, cat #181-500, Biosource International, Camarillo, Calif.). The day before the assay, medium was switched to LHC-8 (No epinephrine or retinoic acid, cat #141-500, Biosource International, Camarillo, Calif.). […]
On the day of the assay, cells were rinsed with PBS, lifted by scraping with 5 mM EDTA in PBS, and counted. […]
Compounds were tested in the assay at 10 different concentrations, ranging from 10 μM to […]. Maximal response was determined in the presence of 10 μM Isoproterenol. […] Plates were sealed, incubated over night at 4° C. and counted the next morning in a topcount scintillation counter (Packard BioScience Co., Meriden, Conn.). The amount of cAMP produced per mL of reaction was calculated based on the counts observed for samples and cAMP standards, as described in the manufacturer's user manual. […]

T1 sequence (P07550 whole entry): as above

| Ki [1] [nM] | Selectivity β2/β1 (binding) [1] | EC50 (human β2-adrenoceptor) [nM] | Selectivity β2/β1 (functional) (human β2-adrenoceptor) | Selectivity β2/β3 (functional) (human β2-adrenoceptor) | EC50 ([3]; BEAS-2B endogenous cell line, cAMP) [nM] | Emax ([3]; BEAS-2B, Emax relative to 10 μM isoproterenol, read-out: % Efficacy) [%] | SMILES | Activity at 1.5 hours post dose [2] | Activity at 72 hours post dose [2] | Activity at 72 hours post dose ([2]; listed as comparison compound) | Activity at 72 hours post dose ([2]; listed as compound of the invention) |
| --- | --- | --- | --- | --- | --- | --- | --- | --- | --- | --- | --- |
| 0.794 | 76 | 0.0501 | 54 | 370 |  |  | O=c1ccc2c([C@@H](O)CNCCCCCCOCCc3ccccc3)ccc(O)c2[nH]1 [Comparison Compound, 8-hydroxy-5-[(R)-1-hydroxy-2-(6-phenethyloxy-hexylamino)ethyl]-1H-quinolin-2-one, reference compound] | Yes | No | not active |  |
| 25.1 | 18 | 0.316 | 107 | 3900 | 3.16 | 68 | O=c1ccc2c([C@@H](O)CNCCCCCCNCCc3ccccc3)ccc(O)c2[nH]1 [Compound of the Invention, 8-hydroxy-5-[(R)-1-hydroxy-2-(6-phenethylamino-hexylamino)ethyl]-1H-quinolin-2-one] | Yes | Yes |  | demonstrated bronchoprotection |
